Experimental data: patent US11919897B2, “Inhibitors of human immunodeficiency virus replication” (VIIV HEALTHCARE UK (No. 5) LIMITED, priority 2018, dated 2024)

Key:
[1] = tested on: recombinant NL4-3 virus (nef section replaced with Renilla luciferase gene) in MT-2 cells; assay: HIV cell culture assay (antiviral activity, luciferase readout in infected MT-2 cells); format: cell-based; conditions: Renilla, NL43
Procedure: HIV cell culture assay-MT-2 cells, 293T cells and the proviral DNA clone of NL4-3 virus were obtained from the NIH AIDS Research and Reference Reagent Program. MT-2 cells were propagated in RPMI 1640 media supplemented with 10% heat inactivated fetal bovine serum (FBS), 100 μg/ml penicillin G and up to 100 units/mL streptomycin. The 293T cells were propagated in DMEM media supplemented with 10% heat inactivated FBS, 100 μg/mL penicillin G and 100 μg/mL streptomycin. A recombinant NL4-3 proviral clone, in which a section of the nef gene was replaced with the Renilla luciferase gene, was used to make the reference virus used in these studies. The recombinant virus was prepared through transfection of the recombinant NL4-3 proviral clone into 293T cells using Transit-293 Transfection Reagent from Minis Bio LLC (Madison, WI). Supernatent was harvested after 2-3 days and the amount of virus present was titered in MT-2 cells using luciferase enzyme activity as a marker by measuring luciferase enzyme activity. Luciferase was quantitated using the EnduRen Live Cell Substrate from Promega (Madison, WI). Antiviral activities of compounds toward the recombinant virus were quantified by measuring luciferase activity in MT-2 cells infected for 4-5 days with the recombinant virus in the presence of serial dilutions of the compound.
The 50% effective concentration (EC50) was calculated by using the exponential form of the median effect equation where (Fa)=1/[1+(ED50/drug conc.)m] (Johnson V A, Byington R T. Infectivity Assay. In Techniques in HIV Research. ed. Aldovini A, Walker B D. 71-76. New York: Stockton Press. 1990).

[2] = Compound cytotoxicity, XTT-based colorimetric assay; format: cell-based; conditions: human; uninfected MT2 cells, day 4, XTT assay
Procedure: Compound cytotoxicity and the corresponding CC50 values were determined using the same protocol as described in the antiviral assay except that uninfected cells were used. Cytotoxicity was assessed on day 4 in uninfected MT2 cells by using an XTT (2,3-bis[2-Methoxy-4-nitro-5-sulfophenyl]-2H-tetrazolium-5-carboxyanilide inner salt)-based colorimetric assay (Sigma-Aldrich, St Louis, Mo.).

SMILES | EC50 [1] [nM] | CC50 at 4 days [2] [nM]
CC(C)COCCOc1ccc2c(=O)n(-c3ccc(Cl)c4c(NS(C)(=O)=O)nn(C)c34)c([C@H](Cc3cc(F)cc(F)c3)NC(=O)Cn3nc(C(F)F)c4c3C(F)(F)[C@@H]3C[C@H]43)nc2n1 (atropisomer, axis not shown; (P)) [Example 25, N—((S)-1-((3P)-3-(4-chloro-1-methyl-3-(methylsulfonamido)-1H-indazol-7-yl)-7-(2-isobutoxyethoxy)-4-oxo-3,4-dihydropyrido[2,3-d]pyrimidin-2-yl)-2-(3,5-difluorophenyl)ethyl)-2-((3bS,4aR)-3-(difluoromethyl)-5,5-difluoro-3b,4,4a,5-tetrahydro-1H-cyclopropa[3,4]cyclopenta[1,2-c]pyrazol-1-yl)acetamide] | 0.054 | > 100
Cn1nc(NS(C)(=O)=O)c2c(Cl)ccc(-n3c([C@H](Cc4cc(F)cc(F)c4)NC(=O)Cn4nc(C(F)F)c5c4C(F)(F)[C@@H]4C[C@H]54)nc4nc(OCc5ccccn5)ccc4c3=O)c21 (atropisomer, axis not shown; (P)) [Example 30, N—((S)-1-((3P)-3-(4-chloro-1-methyl-3-(methylsulfonamido)-1H-indazol-7-yl)-4-oxo-7-(pyridin-2-ylmethoxy)-3,4-dihydropyrido[2,3-d]pyrimidin-2-yl)-2-(3,5-difluorophenyl)ethyl)-2-((3bS,4aR)-3-(difluoromethyl)-5,5-difluoro-3b,4,4a,5-tetrahydro-1H-cyclopropa[3,4]cyclopenta[1,2-c]pyrazol-1-yl)acetamide] | 0.043 | > 100
Cn1nc(NS(C)(=O)=O)c2c(Cl)ccc(-n3c([C@H](Cc4cc(F)cc(F)c4)NC(=O)Cn4nc(C(F)F)c5c4C(F)(F)[C@@H]4C[C@H]54)nc4nc(OCC5CCCC5)ccc4c3=O)c21 (atropisomer, axis not shown; (P)) [Example 2, N—((S)-1-((3P)-3-(4-chloro-1-methyl-3-(methylsulfonamido)-1H-indazol-7-yl)-7-(cyclopentylmethoxy)-4-oxo-3,4-dihydropyrido[2,3-d]pyrimidin-2-yl)-2-(3,5-difluorophenyl)ethyl)-2-((3bS,4aR)-3-(difluoromethyl)-5,5-difluoro-3b,4,4a,5-tetrahydro-1H-cyclopropa[3,4]cyclopenta[1,2-c]pyrazol-1-yl)acetamide] | 0.06 | > 1000
Cn1nc(NS(C)(=O)=O)c2c(Cl)ccc(-n3c([C@H](Cc4cc(F)cc(F)c4)NC(=O)Cn4nc(C(F)F)c5c4C(F)(F)[C@@H]4C[C@H]54)nc4nc(O)ccc4c3=O)c21 (atropisomer, axis not shown; (P)) [Example 1, N—((S)-1-((3P)-3-(4-chloro-1-methyl-3-(methylsulfonamido)-1H-indazol-7-yl)-7-hydroxy-4-oxo-3,4-dihydropyrido[2,3-d]pyrimidin-2-yl)-2-(3,5-difluorophenyl)ethyl)-2-((3bS,4aR)-3-(difluoromethyl)-5,5-difluoro-3b,4,4a,5-tetrahydro-1H-cyclopropa[3,4]cyclopenta[1,2-c]pyrazol-1-yl)acetamide] | 2.7 | > 1000
C[C@H](Oc1ccc2c(=O)n(-c3ccc(Cl)c4c(NS(C)(=O)=O)nn(C)c34)c([C@H](Cc3cc(F)cc(F)c3)NC(=O)Cn3nc(C(F)F)c4c3C(F)(F)[C@@H]3C[C@H]43)nc2n1)C1CCCC1 (atropisomer, axis not shown; (P)) [Example 23, N—((S)-1-((3P)-3-(4-chloro-1-methyl-3-(methylsulfonamido)-1H-indazol-7-yl)-7-((S)-1-cyclopentylethoxy)-4-oxo-3,4-dihydropyrido[2,3-d]pyrimidin-2-yl)-2-(3,5-difluorophenyl)ethyl)-2-((3bS,4aR)-3-(difluoromethyl)-5,5-difluoro-3b,4,4a,5-tetrahydro-1H-cyclopropa[3,4]cyclopenta[1,2-c]pyrazol-1-yl)acetamide] | 0.17 | > 500
C[C@@H](Oc1ccc2c(=O)n(-c3ccc(Cl)c4c(NS(C)(=O)=O)nn(C)c34)c([C@H](Cc3cc(F)cc(F)c3)NC(=O)Cn3nc(C(F)F)c4c3C(F)(F)[C@@H]3C[C@H]43)nc2n1)C1CCCC1 (atropisomer, axis not shown; (P)) [Example 16, N—((S)-1-((3P)-3-(4-chloro-1-methyl-3-(methylsulfonamido)-1H-indazol-7-yl)-7-((R)-1-cyclopentylethoxy)-4-oxo-3,4-dihydropyrido[2,3-d]pyrimidin-2-yl)-2-(3,5-difluorophenyl)ethyl)-2-((3bS,4aR)-3-(difluoromethyl)-5,5-difluoro-3b,4,4a,5-tetrahydro-1H-cyclopropa[3,4]cyclopenta[1,2-c]pyrazol-1-yl)acetamide] | 0.22 | > 500
Cn1nc(NS(C)(=O)=O)c2c(Cl)ccc(-n3c([C@H](Cc4cc(F)cc(F)c4)NC(=O)Cn4nc(C(F)F)c5c4C(F)(F)[C@@H]4C[C@H]54)nc4nc(OCCN5CCS(=O)(=O)CC5)ccc4c3=O)c21 (atropisomer, axis not shown; (P)) [Example 7, N—((S)-1-((3P)-3-(4-chloro-1-methyl-3-(methylsulfonamido)-1H-indazol-7-yl)-7-(2-(1,1-dioxidothiomorpholino)ethoxy)-4-oxo-3,4-dihydropyrido[2,3-d]pyrimidin-2-yl)-2-(3,5-difluorophenyl)ethyl)-2-((3bS,4aR)-3-(difluoromethyl)-5,5-difluoro-3b,4,4a,5-tetrahydro-1H-cyclopropa[3,4]cyclopenta[1,2-c]pyrazol-1-yl)acetamide] | 0.26 | > 1000
Cn1nc(NS(C)(=O)=O)c2c(Cl)ccc(-n3c([C@H](Cc4cc(F)cc(F)c4)NC(=O)Cn4nc(C(F)F)c5c4C(F)(F)[C@@H]4C[C@H]54)nc4nc(OCc5ccccc5)ccc4c3=O)c21 (atropisomer, axis not shown; (P)) [Example 26, N—((S)-1-(7-(benzyloxy)-(3P)-3-(4-chloro-1-methyl-3-(methylsulfonamido)-1H-indazol-7-yl)-4-oxo-3,4-dihydropyrido[2,3-d]pyrimidin-2-yl)-2-(3,5-difluorophenyl)ethyl)-2-((3bS,4aR)-3-(difluoromethyl)-5,5-difluoro-3b,4,4a,5-tetrahydro-1H-cyclopropa[3,4]cyclopenta[1,2-c]pyrazol-1-yl)acetamide] | 0.1 | > 100
CC(C)(C)CCOc1ccc2c(=O)n(-c3ccc(Cl)c4c(NS(C)(=O)=O)nn(CC(F)F)c34)c([C@H](Cc3cc(F)cc(F)c3)NC(=O)Cn3nc(C(F)F)c4c3C(F)(F)[C@@H]3C[C@H]43)nc2n1 (atropisomer, axis not shown; (P)) [Example 14, N—((S)-1-((3P)-3-(4-chloro-1-(2,2-difluoroethyl)-3-(methylsulfonamido)-1H-indazol-7-yl)-7-(3,3-dimethylbutoxy)-4-oxo-3,4-dihydropyrido[2,3-d]pyrimidin-2-yl)-2-(3,5-difluorophenyl)ethyl)-2-((3bS,4aR)-3-(difluoromethyl)-5,5-difluoro-3b,4,4a,5-tetrahydro-1H-cyclopropa[3,4]cyclopenta[1,2-c]pyrazol-1-yl)acetamide] | 0.12 | > 500
Cn1nc(NS(C)(=O)=O)c2c(Cl)ccc(-n3c([C@H](Cc4cc(F)cc(F)c4)NC(=O)Cn4nc(C(F)F)c5c4C(F)(F)[C@@H]4C[C@H]54)nc4nc(OCCOC5CC5)ccc4c3=O)c21 (atropisomer, axis not shown; (P)) [Example 29, N—((S)-1-((3P)-3-(4-chloro-1-methyl-3-(methylsulfonamido)-1H-indazol-7-yl)-7-(2-cyclopropoxyethoxy)-4-oxo-3,4-dihydropyrido[2,3-d]pyrimidin-2-yl)-2-(3,5-difluorophenyl)ethyl)-2-((3bS,4aR)-3-(difluoromethyl)-5,5-difluoro-3b,4,4a,5-tetrahydro-1H-cyclopropa[3,4]cyclopenta[1,2-c]pyrazol-1-yl)acetamide] | 0.034 | > 100
CCC(C)(C)CCOc1ccc2c(=O)n(-c3ccc(Cl)c4c(NS(C)(=O)=O)nn(C)c34)c([C@H](Cc3cc(F)cc(F)c3)NC(=O)Cn3nc(C(F)F)c4c3C(F)(F)[C@@H]3C[C@H]43)nc2n1 (atropisomer, axis not shown; (P)) [Example 13, N—((S)-1-((3P)-3-(4-chloro-1-methyl-3-(methylsulfonamido)-1H-indazol-7-yl)-7-((3,3-dimethylpentyl)oxy)-4-oxo-3,4-dihydropyrido[2,3-d]pyrimidin-2-yl)-2-(3,5-difluorophenyl)ethyl)-2-((3bS,4aR)-3-(difluoromethyl)-5,5-difluoro-3b,4,4a,5-tetrahydro-1H-cyclopropa[3,4]cyclopenta[1,2-c]pyrazol-1-yl)acetamide] | 0.17 | –
Cn1nc(NS(C)(=O)=O)c2c(Cl)ccc(-n3c([C@H](Cc4cc(F)cc(F)c4)NC(=O)Cn4nc(C(F)F)c5c4C(F)(F)[C@@H]4C[C@H]54)nc4nc(OCCCC(C)(C)C)ccc4c3=O)c21 (atropisomer, axis not shown; (P)) [Example 19] | 0.11 | –
